Publication PMC9502993 (Pharmaceuticals, 2022)
Where “and” joins values, the source holds several entries; their conditions need not be identical. Equal entries are not always repeated. Where two headings read alike, the source gives them in different places.

How the values were obtained:
[1] = tested on: primary immune cells; settings: primary immune cells ref 9; cited from earlier work
[2] = tested on: Caco-2 cell barrier; assay: Cell barrier integrity (TEER, cellZscope2); type: cell-based
[3] = tested on: Caco-2 cell barrier; settings: human, 200 µM
[4] = tested on: Calu-3 cell barrier; settings: human, 24 h, 200 µM
[5] = tested on: Caco-2 cells; settings: human, 25 µM
[6] = Stability assay in human liver microsomes; type: in vitro ADME; settings: pH 7.4, human liver microsomes 0.5 mg/mL
Experimental: The reaction was started with 1 mM NADPH diluted in potassium phosphate buffer. As control, samples without NAPDH were used. After various time points (0 h, 1 h, 2 h, 4 h), the reaction was stopped by adding ice-cold acetonitrile. The samples were centrifuged (5 min, 4 °C, 10,000× g) and supernatant was stored at −80 °C until the remaining drug concentration was determined by LC-MS/MS as described in detail below. The concentrations of the drugs were plotted against time and the elimination constant (k) was calculated from the slope (m):m = −k
Equation to determine half-life:T1/2 = 0.693/K
Equation to determine intrinsic clearance:Cl = Ln(2) × 1000/T1/2/protein concentration

[7] = target: T1, P-glycoprotein (Homo sapiens, UniProt P08183); settings: cited from earlier work
T1 construct: endogenous in cells; host or cells: Caco-2 (high P-gp), Calu-3 (low P-gp)

[8] = tested on: Calu-3 cells; settings: human, 25 µM
[9] = tested on: HEK293T cells; assay: cAMP assay (GloSensor luciferase), GPCR off-target
[10] = tested on: HepG2 cells; assay: In Vitro Micronuclei Plus assay (flow cytometry)
[11] = tested on: HEK293T cells; assay: Ca2+-release assay (Fluo-8-AM), GPCR off-target; type: cell-based
Experimental: Next, 50,000 HEK293T cells were seeded in a 96-well poly-D-lysine-coated plate and incubated at 37 °C for 24 h. Cells were incubated with 4 µM Fluo-8-AM in HBSS for 1 h at 37 °C. After 1 h, the Fluo-8/HBSS was replaced by 100 µL HBSS. Five images per second were taken using an ImageXpress Micro Confocal High Content Imaging System (Molecular Device, San Jose, CA, USA). […] An image was taken every second for the next 20 s. The MetaXpress Software Version 6.7.1.157 (San Jose, CA, USA) was used to analyze the data. A threshold of fluorescence intensity was defined using cells before treatment and all cells with a fluorescence signal above the threshold level were counted and related to all cells.

[12] = tested on: HEK293T cells; assay: IP3 assay, GPCR off-target; type: cell-based
[13] = tested on: Caco-2 cell barrier; assay: Transport assay across cell barrier
[14] = tested on: Calu-3 cells; assay: Cellular uptake assay (LC-MS/MS)
[15] = tested on: lung fibroblast cell line MRC-5; parameters: method as in PMID 31931103; settings: MRC-5 ref 5; cited from earlier work
[16] = tested on: various viruses, such as corona- and Ebolaviruses; settings: cited from earlier work
[17] = tested on: HeLa; settings: HeLa ref 6; cited from earlier work
[18] = tested on: Calu-3 cells; assay: Cell viability assay (Orangu WST-8, formazan-based)
[19] = tested on: Caco-2 cells; assay: as above; settings: for effect on cell viability: 48 h
[20] = mice, formulated in hydroxypropyl-β-cyclodextrin, intraperitoneal ref 30; cited from earlier work
[21] = tested on: hepatocellular carcinoma cell line Huh-7; settings: Huh-7 ref 6; cited from earlier work
[22] = tested on: MERS-CoV; settings: MERS-CoV ref 6; read-out: EC50 (50% reduction of the virus titer); cited from earlier work
[23] = tested on: Caki-2 cells; assay: Cell viability assay (Orangu WST-8, formazan-based); settings: 48 h
[24] = as above; settings: human, Caki-2 cells
[25] = tested on: Calu-3 cell barrier; assay: Transport assay across cell barrier
[26] = tested on: colon cancer cell line HT29; settings: HT29 ref 17; cited from earlier work
[27] = tested on: Caco-2 cells; assay: Cellular uptake assay (LC-MS/MS)
[28] = tested on: lung cancer cell line A549; parameters: method as in PMID 31931103; settings: A549 ref 5; cited from earlier work
[29] = tested on: primary dendritic cells; parameters: method as in PMID 35336926; settings: primary dendritic cells ref 9; cited from earlier work
[30] = tested on: Chikungunya virus; parameters: method as in PMID 31931103; settings: Chikungunya virus ref 5; read-out: EC50 (50% reduction of the virus titer); cited from earlier work
[31] = Cell viability assay (Orangu WST-8, formazan-based); settings: human, HEK293T cells
[32] = tested on: HEK293T cells; assay: as above; settings: 48 h
[33] = tested on: primary monocytes; parameters: method as in PMID 35336926; settings: primary monocytes ref 9; cited from earlier work
[34] = tested on: primary M1 macrophages; parameters: method as in PMID 35336926; settings: primary M1 macrophages ref 9; cited from earlier work
[35] = tested on: non-transformed primary cells; settings: several non-transformed primary cells ref 6, 20, 30; cited from earlier work
[36] = tested on: HCoV-229E; settings: HCoV-229E ref 6; read-out: EC50 (50% reduction of the virus titer); cited from earlier work
[37] = tested on: primary M2 macrophages; parameters: method as in PMID 35336926; settings: primary M2 macrophages ref 9; read-out: CC50 (no cytotoxic effects up to); cited from earlier work
[38] = tested on: HepG2 cells; assay: Cell viability assay (Orangu WST-8, formazan-based)
Experimental: For the cell viability assay, HepG2 cells were incubated with various
normalized to the absorbance of the respective DMSO value to calculate cell viability. The experiments were performed in biological
(1 picture or pasted object on this page, not shown here)

[39] = tested on: T cells; parameters: method as in PMID 35336926, PMID 1360266; settings: T cells ref 9, 34; cited from earlier work
[40] = tested on: MDA-MB-231 cell line; parameters: method as in PMID 32470302; settings: MDA-MB-231, 100 nM ref 39; cited from earlier work
[41] = 10 µM ionomycin, positive control

T1 sequence (P08183 whole entry): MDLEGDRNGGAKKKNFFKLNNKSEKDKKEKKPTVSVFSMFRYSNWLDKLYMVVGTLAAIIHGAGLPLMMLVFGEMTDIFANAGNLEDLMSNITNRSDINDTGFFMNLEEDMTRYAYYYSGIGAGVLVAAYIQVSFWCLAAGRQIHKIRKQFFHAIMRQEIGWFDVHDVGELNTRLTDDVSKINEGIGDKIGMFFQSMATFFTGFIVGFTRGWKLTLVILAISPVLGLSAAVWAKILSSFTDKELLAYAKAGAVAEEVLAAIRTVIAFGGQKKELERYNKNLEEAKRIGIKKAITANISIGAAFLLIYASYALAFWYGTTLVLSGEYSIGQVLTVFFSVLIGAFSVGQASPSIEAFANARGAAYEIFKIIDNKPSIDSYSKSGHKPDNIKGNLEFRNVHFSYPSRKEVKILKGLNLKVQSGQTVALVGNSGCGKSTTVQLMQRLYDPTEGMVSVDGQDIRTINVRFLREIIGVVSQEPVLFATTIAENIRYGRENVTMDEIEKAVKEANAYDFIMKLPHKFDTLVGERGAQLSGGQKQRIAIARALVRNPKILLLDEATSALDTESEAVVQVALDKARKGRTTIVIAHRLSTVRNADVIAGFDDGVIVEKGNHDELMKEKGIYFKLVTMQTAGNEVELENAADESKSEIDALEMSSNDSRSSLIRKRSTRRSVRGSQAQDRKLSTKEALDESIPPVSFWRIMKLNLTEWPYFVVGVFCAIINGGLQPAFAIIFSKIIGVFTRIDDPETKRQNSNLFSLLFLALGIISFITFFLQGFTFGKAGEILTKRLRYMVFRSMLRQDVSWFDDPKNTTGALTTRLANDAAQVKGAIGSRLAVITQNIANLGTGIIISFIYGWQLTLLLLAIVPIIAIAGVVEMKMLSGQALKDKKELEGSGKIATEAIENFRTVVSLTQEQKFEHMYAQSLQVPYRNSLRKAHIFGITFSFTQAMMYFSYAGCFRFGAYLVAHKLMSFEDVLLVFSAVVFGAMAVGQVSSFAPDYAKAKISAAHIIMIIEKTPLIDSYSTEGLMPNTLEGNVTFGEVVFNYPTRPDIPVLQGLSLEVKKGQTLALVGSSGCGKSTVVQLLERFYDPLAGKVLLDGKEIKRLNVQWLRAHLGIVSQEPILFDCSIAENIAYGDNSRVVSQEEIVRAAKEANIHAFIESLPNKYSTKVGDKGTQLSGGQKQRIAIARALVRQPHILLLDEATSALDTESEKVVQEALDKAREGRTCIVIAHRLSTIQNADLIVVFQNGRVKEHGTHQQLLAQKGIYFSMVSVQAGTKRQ

CONC(=O)[C@H]1[C@@H](O)[C@@]2(O)c3c(OC)cc(OC)cc3O[C@@]2(c2ccc(OC)cc2)[C@@H]1c1ccccc1 [CR31B (-)]
cytotoxicity compared with silvestrol [1]: comparable cytotoxic effects to those of silvestrol

O=C(O)CN(CCOCCOCCN(CC(=O)O)CC(=O)O)CC(=O)O [EGTA, reference compound]
effect on TEER readings (cell barrier integrity) ([2]; 10 mM, positive control): caused a drop in TEER readings

NC(=O)N1c2ccccc2C=Cc2ccccc21 [carbamazepine]
transport rate ([3]; 4 h): approx. 45%
transport rate [4]: 74%

Cc1ccc(-c2cc(C(F)(F)F)nn2-c2ccc(S(N)(=O)=O)cc2)cc1 [celecoxib, reference compound]
uptake rate [5]: about 2.5 ng/µg protein
half-life at 10 µM ([6]; 10 µM): 2.3 ± 0.5 h
microsomal CLint at 10 µM ([6]; 10 µM, read-out: intrinsic clearance): 10.5 ± 2 µL/min/mg
substrate of P-glycoprotein [7]: not a substrate of P-glycoprotein
uptake rate [8]: about 2.5 ng/µg protein

NC(N)=Nc1nc(CSCCC(N)=NS(N)(=O)=O)cs1 [famotidine]
transport rate ([3]; 4 h): 0.7%
transport rate ([3]; 24 h): 1.3%
transport rate [4]: 8.3%

C=C[C@@]1(C)CC(=O)[C@]2(O)[C@@]3(C)[C@@H](O)CCC(C)(C)[C@@H]3[C@H](O)[C@H](OC(C)=O)[C@@]2(C)O1 [forskolin, reference compound]
induction of cAMP formation ([9]; 5 µM forskolin, positive control): induced significant increases

CC(C)Cc1ccc(C(C)C(=O)O)cc1 (centres unmarked) [ibuprofen, reference compound]
genotoxicity by the criteria of OECD guideline 487 ([10]; positive and negative control): no effects

C[C@H](CCC(=O)O)C[C@H](C)C[C@H](C)C(=O)/C=C(\O)[C@H](C)C[C@H](C)C/C=C/[C@@H](C)[C@@H](O)[C@@H](C)[C@@H](O)C[C@@H]1CC[C@@](C)([C@H]2CC[C@@](C)([C@@H](C)O)O2)O1 [ionomycin, reference compound]
induction of Ca2+-release [11, 41]: induced significant increases
induction of IP3 synthesis [12, 41]: induced significant increases

COC(=O)[C@H]1[C@@H](O)[C@@]2(O)c3c(OC)cc(O[C@@H]4O[C@@H]([C@H](O)CO)CO[C@H]4OC)cc3O[C@@]2(c2ccc(OC)cc2)[C@@H]1c1ccccc1 [silvestrol]
transport rate ([13]; 50 nM, 24 h): 1.3%
transport rate ([13]; 100 nM, 4 h): 0.5%
transport rate ([13]; 100 nM, 24 h): 1.9%
uptake related to used amount of silvestrol ([14]; at maximum): ≈ 3.7%
cellular uptake (maximum) ([14]; concentration- and time-dependent): about 7.7 pg/µg protein
cytotoxicity (no cytotoxicity up to) [15]: > 50 µM
reduction of virus titers [16]: up to 4 log phases
EC50 ([16]; read-out: EC50 for inhibition of virus replication): 1 to 100 nM
EC50 ([16]; various viruses, such as corona- and Ebolaviruses (abstract), read-out: EC50): ~5 nM
CC50 [17]: 5 nM
effect on cell viability ([18]; 48 h): did not reduce viability below 50%
reduction of viability ([18]; concentrations up to 1000 nM): about 50%
effect on cell viability [19]: did not reduce viability below 50%
effect on cell viability ([19]; listed as Silvestrol): only minor effects
reduction of viability ([19]; concentrations up to 1000 nM): about 50%
change of cytotoxicity on inhibition of P-glycoprotein ([19]; preincubated with 1 µM cyclosporine 60 min, then 48 h): increased the cytotoxic potential
intraperitoneal systemic availability [20]: 100%
CC50 [21]: 30 nM
effect on TEER readings (cell barrier integrity) ([2]; 50 and 100 nM, 20 h): reduced TEER readings only slightly
half-life at 100 nM ([6]; 100 nM): 11.6 ± 1.2 h
microsomal CLint at 100 nM ([6]; 100 nM, read-out: intrinsic clearance): 1.7 ± 0.5 µL/min/mg
EC50 [22]: ~5 nM
CC50 [23]: 37.2 nM
CC50 at 48 h [24]: 37 nM
transport rate ([25]; 50 nM, 24 h): 7.8%
transport rate ([25]; 100 nM, 4 h): 0.8%
transport rate ([25]; 100 nM, 24 h): 10.6%
CC50 [26]: 0.7 nM
cellular uptake (maximum) ([27]; 25 nM, 2 and 4 h): about 2.5 pg/µg protein
uptake related to used silvestrol ([27]; 25 nM, at maximum): ≈ 1.3%
change of intracellular silvestrol level on inhibition of P-glycoprotein ([27]; preincubated with 1 µM cyclosporine 60 min): leads to an increase in intracellular silvestrol levels
substrate of P-glycoprotein [7]: substrate
induction of Ca2+-release ([11]; silvestrol 10, 50, 100 nM): did not significantly induce
clastogenic effects (micronuclei) ([10]; 50 nM): clastogenic effects
aneugenic effects (hypodiploid cells) ([10]; silvestrol concentrations up to 50 nM): no aneugenic effects
CC50 [28]: 9.42 nM
cytotoxicity (no cytotoxic effects up to) [29]: > 100 nM
EC50 [30]: ~5 nM
CC50 at 48 h [31]: 16 nM
CC50 [32]: 15.9 nM
CC50 [33]: 29 nM
induction of cAMP synthesis ([9]; silvestrol 10, 50, 100 nM): did not significantly induce
CC50 [34]: 45.6 nM and 46 nM
cytotoxicity [35]: no major cytotoxicity
induction of IP3 synthesis ([12]; silvestrol): did not significantly induce
EC50 [36]: ~5 nM
CC50 [37]: > 100 nM
effect on cell viability ([38]; 48 h): only minor effects
reduction of viability ([38]; concentrations up to 1000 nM): about 50%
cytotoxicity (no cytotoxic effects up to) [39]: > 100 nM

COc1cc2c(c(OC)n1)[C@]1(O)[C@H](O)[C@H](CN(C)C)[C@@H](c3ccccc3)[C@]1(c1ccc(C#N)cc1)O2 [zotatifin, reference compound]
clastogenic effects (micronuclei) ([10]; 10 nM only, not concentration dependent): some clastogenic and aneugenic effects
effect on cell cycle and apoptosis [40]: induces a G2 cell cycle block and apoptosis
